Assay [1] deals with Tyrosine-protein kinase Tec (Homo sapiens) (UniProt P42680). The assay can be described thus: Inhibition of tracer 178 binding to recombinant full length human His-tagged TEC expressed in baculovirus expression system at 0.1 uM measured after 60 mins by Lanthascreen assay. In general terms: Time-resolved FRET reads energy transfer from a long-lived donor to a nearby acceptor.

The target in assay [2] is Mitogen-activated protein kinase 10 (Homo sapiens) (UniProt P53779). Description: Inhibition of recombinant full length human GST-tagged JNK3 expressed in baculovirus expression system at 0.1 uM using serine/threonine-4 peptide as substrate incubated for 60 mins by Z'-LYTE assay relative to control.
Chain of Mitogen-activated protein kinase 10 (Homo sapiens) (P53779 whole entry): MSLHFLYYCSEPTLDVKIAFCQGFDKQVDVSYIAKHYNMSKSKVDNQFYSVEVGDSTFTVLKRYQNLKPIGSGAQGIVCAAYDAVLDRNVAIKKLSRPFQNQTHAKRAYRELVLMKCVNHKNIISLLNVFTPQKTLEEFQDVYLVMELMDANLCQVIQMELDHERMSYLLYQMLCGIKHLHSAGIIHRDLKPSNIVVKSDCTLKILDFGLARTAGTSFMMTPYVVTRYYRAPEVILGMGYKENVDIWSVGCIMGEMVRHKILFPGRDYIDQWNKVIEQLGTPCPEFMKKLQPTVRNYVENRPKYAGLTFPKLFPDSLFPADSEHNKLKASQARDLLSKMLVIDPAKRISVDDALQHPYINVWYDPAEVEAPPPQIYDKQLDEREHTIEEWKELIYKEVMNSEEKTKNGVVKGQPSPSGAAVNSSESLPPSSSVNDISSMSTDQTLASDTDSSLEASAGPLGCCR
The target of assay [3] is Calcium/calmodulin-dependent protein kinase type IV (Homo sapiens) (UniProt Q16566). Description: Inhibition of recombinant full length human full length GST-tagged CAMK4 expressed in Escherichia coli expression system at 0.1 uM using serine/threonine-13 peptide as substrate incubated for 60 mins by Z'-LYTE assay relative to control.
Chain of Calcium/calmodulin-dependent protein kinase type IV (Homo sapiens) (Q16566 whole entry): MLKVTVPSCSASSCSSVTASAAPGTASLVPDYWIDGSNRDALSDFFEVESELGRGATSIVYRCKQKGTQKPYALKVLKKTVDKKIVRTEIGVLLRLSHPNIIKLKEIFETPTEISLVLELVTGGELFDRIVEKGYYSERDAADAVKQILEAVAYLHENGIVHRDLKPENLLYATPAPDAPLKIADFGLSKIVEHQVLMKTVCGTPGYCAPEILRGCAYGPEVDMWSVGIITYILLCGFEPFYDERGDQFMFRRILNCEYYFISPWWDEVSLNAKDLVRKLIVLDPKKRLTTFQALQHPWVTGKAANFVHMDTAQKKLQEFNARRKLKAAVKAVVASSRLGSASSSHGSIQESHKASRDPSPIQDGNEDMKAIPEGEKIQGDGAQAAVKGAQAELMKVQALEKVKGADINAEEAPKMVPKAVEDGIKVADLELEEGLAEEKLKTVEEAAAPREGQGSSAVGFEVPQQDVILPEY
Assay [4] has as its target Calcium/calmodulin-dependent protein kinase type 1 (Homo sapiens) (UniProt Q14012). The assay can be described thus: Inhibition of recombinant full length human His-tagged CAMK1 expressed in baculovirus expression system at 0.1 uM using ZIPtide peptide as substrate incubated for 60 mins by Adapta assay relative to control.
For assay [5], the target named is Proto-oncogene tyrosine-protein kinase ROS (Homo sapiens) (UniProt P08922). The assay can be described thus: Inhibition of recombinant human GST-tagged ROS1 catalytic domain (1883 to 2347 residues) expressed in baculovirus expression system at 0.1 uM using tyrosine-2 peptide as substrate incubated for 60 mins by Z'-LYTE assay relative to control.
Chain of Proto-oncogene tyrosine-protein kinase ROS (Homo sapiens) (P08922 whole entry, the tested form may be a part): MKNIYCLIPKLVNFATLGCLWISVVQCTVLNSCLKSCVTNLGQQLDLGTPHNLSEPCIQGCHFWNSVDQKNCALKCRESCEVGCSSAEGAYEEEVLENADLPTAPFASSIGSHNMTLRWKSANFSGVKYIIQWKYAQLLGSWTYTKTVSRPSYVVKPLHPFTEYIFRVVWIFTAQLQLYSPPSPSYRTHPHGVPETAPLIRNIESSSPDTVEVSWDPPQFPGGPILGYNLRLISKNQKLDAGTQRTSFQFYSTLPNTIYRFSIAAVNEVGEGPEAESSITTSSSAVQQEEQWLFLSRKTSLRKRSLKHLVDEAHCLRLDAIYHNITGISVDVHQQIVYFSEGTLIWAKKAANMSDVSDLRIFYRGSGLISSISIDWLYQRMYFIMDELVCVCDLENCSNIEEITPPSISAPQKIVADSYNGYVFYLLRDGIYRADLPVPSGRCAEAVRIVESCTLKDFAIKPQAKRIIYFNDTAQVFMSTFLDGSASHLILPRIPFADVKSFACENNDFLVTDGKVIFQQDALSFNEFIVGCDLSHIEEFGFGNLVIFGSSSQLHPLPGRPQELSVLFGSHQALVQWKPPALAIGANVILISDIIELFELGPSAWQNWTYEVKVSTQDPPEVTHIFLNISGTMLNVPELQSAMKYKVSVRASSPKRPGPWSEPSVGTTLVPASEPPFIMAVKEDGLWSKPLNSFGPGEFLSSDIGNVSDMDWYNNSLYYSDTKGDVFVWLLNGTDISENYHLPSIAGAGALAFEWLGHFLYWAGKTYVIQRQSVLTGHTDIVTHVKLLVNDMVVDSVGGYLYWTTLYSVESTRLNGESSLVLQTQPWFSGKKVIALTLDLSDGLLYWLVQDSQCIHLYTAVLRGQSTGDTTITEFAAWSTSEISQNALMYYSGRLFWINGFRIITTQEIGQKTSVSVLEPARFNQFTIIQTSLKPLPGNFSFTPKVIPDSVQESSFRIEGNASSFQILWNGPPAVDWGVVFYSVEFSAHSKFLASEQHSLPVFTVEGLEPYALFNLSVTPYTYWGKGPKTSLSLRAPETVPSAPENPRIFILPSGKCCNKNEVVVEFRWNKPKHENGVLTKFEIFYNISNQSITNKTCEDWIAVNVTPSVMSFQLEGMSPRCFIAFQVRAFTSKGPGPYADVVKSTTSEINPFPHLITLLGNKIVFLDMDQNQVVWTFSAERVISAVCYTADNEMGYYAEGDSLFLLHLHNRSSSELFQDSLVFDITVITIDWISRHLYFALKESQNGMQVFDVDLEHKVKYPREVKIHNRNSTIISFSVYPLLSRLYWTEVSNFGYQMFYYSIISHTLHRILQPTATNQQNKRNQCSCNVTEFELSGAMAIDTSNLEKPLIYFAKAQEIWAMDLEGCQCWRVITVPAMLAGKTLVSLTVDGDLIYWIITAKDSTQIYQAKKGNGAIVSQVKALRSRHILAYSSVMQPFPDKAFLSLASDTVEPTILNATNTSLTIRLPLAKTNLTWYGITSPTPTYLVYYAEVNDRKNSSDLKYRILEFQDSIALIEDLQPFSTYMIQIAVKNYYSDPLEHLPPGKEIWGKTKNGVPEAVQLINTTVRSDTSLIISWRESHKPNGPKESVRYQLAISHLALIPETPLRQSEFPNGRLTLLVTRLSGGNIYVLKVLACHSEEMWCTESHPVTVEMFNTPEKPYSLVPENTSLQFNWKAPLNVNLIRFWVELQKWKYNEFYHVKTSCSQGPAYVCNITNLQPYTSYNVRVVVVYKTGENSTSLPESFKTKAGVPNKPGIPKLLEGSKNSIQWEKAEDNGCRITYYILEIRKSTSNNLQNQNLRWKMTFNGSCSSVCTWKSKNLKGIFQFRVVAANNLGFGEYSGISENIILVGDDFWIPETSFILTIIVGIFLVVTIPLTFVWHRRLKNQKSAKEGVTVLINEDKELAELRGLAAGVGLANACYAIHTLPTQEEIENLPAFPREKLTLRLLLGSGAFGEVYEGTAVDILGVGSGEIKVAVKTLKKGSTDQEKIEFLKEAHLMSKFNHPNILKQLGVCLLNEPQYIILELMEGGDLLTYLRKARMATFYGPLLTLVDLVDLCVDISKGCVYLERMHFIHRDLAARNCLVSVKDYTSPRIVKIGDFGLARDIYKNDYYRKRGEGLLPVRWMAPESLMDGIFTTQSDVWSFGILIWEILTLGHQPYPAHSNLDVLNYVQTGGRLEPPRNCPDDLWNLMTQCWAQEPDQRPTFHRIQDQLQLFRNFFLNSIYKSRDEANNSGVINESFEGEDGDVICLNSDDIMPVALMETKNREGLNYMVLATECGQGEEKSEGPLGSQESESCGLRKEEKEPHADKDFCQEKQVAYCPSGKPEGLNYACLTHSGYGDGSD
The target of assay [6] is Proto-oncogene tyrosine-protein kinase Src (Homo sapiens) (UniProt P12931). The assay can be described thus: Inhibition of recombinant full length human His-tagged SRC expressed in baculovirus expression system at 0.1 uM using tyrosine-2 peptide as substrate incubated for 60 mins by Z'-LYTE assay relative to control.
Assay [7] has as its target Platelet-derived growth factor receptor alpha (Homo sapiens) (UniProt P16234). Description: Inhibition of recombinant human GST-tagged PDGFRalpha (550 to 1089 residues) expressed in baculovirus expression system at 0.1 uM using tyrosine-4 peptide as substrate incubated for 60 mins by Z'-LYTE assay relative to control.
Assay [8] concerns the target TGF-beta receptor type-1 (Homo sapiens) (UniProt P36897). The assay can be described thus: Inhibition of tracer 178 binding to recombinant human GST-tagged TGFBR1 catalytic domain (200 to 503 residues) expressed in baculovirus expression system at 0.1 uM measured after 60 mins by Lanthascreen assay.
Assay [9] concerns the target Tyrosine-protein kinase ABL1 (Homo sapiens) (UniProt P00519). The assay can be described thus: Inhibition of recombinant full length human His-tagged ABL1 expressed in baculovirus expression system at 0.1 uM using tyrosine-2 peptide as substrate incubated for 60 mins by Z'-LYTE assay relative to control.
Assay [10] has as its target Tyrosine-protein kinase Yes (Homo sapiens) (UniProt P07947). Description: Inhibition of recombinant full length human GST-tagged YES expressed in baculovirus expression system at 0.1 uM using tyrosine-2 peptide as substrate incubated for 60 mins by Z'-LYTE assay relative to control.
In assay [11] the target is Casein kinase I isoform epsilon (Homo sapiens) (UniProt P49674). The assay can be described thus: Inhibition of recombinant full length human His-tagged CK1 epsilon1 expressed in baculovirus expression system at 0.1 uM using serine/threonine-11 peptide as substrate incubated for 60 mins by Z'-LYTE assay relative to control.
Assay [12] concerns the target Dual specificity mitogen-activated protein kinase kinase 6 (Homo sapiens) (UniProt P52564). The assay can be described thus: Inhibition of recombinant full length human His-tagged MKK6 expressed in baculovirus expression system at 0.1 uM using serine/threonine-3 peptide as substrate incubated for 60 mins by Z'-LYTE assay relative to control.
In assay [13] the target is Phosphorylase b kinase gamma catalytic chain, skeletal muscle/heart isoform (Homo sapiens) (UniProt Q16816). The assay can be described thus: Inhibition of recombinant full length human GST-tagged PHKG1 expressed in baculovirus expression system at 0.1 uM using serine/threonine-7 peptide as substrate incubated for 60 mins by Z'-LYTE assay relative to control.
Assay [14] addresses Ribosomal protein S6 kinase alpha-2 (Homo sapiens) (UniProt Q15349). The assay can be described thus: Inhibition of recombinant full length human GST-tagged RSK3 expressed in insect expression system at 0.1 uM using serine/threonine-6 peptide as substrate incubated for 60 mins by Z'-LYTE assay relative to control.
Assay [15] addresses DNA-dependent protein kinase catalytic subunit (Homo sapiens) (UniProt P78527). The assay can be described thus: Inhibition of recombinant human DNA-PK expressed in baculovirus expression system at 0.1 uM using serine/threonine-26 peptide as substrate incubated for 60 mins by Z'-LYTE assay relative to control.
The target in assay [16] is Phosphatidylinositol 4,5-bisphosphate 3-kinase catalytic subunit gamma isoform (Homo sapiens) (UniProt P48736). Description: Inhibition of recombinant human GST-tagged PI3Kgamma catalytic domain (468 to 1203 residues) expressed in insect expression system at 0.1 uM using PI Lipid Kinase as substrate incubated for 60 mins by Adapta assay relative to control.
Assay [17] concerns the target Misshapen-like kinase 1 (Homo sapiens) (UniProt Q8N4C8). The assay can be described thus: Inhibition of recombinant human GST-tagged MINK1 catalytic domain (1 to 320 residues) expressed in baculovirus expression system at 0.1 uM using serine/threonine-7 peptide as substrate incubated for 60 mins by Z'-LYTE assay relative to control.
In assay [18] the target is Mitogen-activated protein kinase 11 (Homo sapiens) (UniProt Q15759). The assay can be described thus: Inhibition of recombinant full length human His-tagged p38beta expressed in baculovirus expression system at 0.1 uM using serine/threonine-15 peptide as substrate incubated for 60 mins by Z'-LYTE assay relative to control.
Assay [19] addresses Mitogen-activated protein kinase kinase kinase 5 (Homo sapiens) (UniProt Q99683). Description: Inhibition of tracer 236 binding to recombinant full length human GST-tagged ASK1 expressed in baculovirus expression system at 0.1 uM measured after 60 mins by Lanthascreen assay relative to control.
For assay [20], the target named is Tyrosine-protein kinase Lck (Homo sapiens) (UniProt P06239). The assay can be described thus: Inhibition of recombinant full length human His-tagged LCK expressed in baculovirus expression system at 0.1 uM using tyrosine-2 peptide as substrate incubated for 60 mins by Z'-LYTE assay relative to control.
For assay [21], the target named is Leukocyte tyrosine kinase receptor (Homo sapiens) (UniProt P29376). The assay can be described thus: Inhibition of recombinant human GST-tagged LTK (450 to 864 residues) expressed in baculovirus expression system at 0.1 uM using tyrosine-6 peptide as substrate incubated for 60 mins by Z'-LYTE assay relative to control.
In assay [22] the target is Mitogen-activated protein kinase 9 (Homo sapiens) (UniProt P45984). Description: Inhibition of recombinant full length human His-tagged JNK2 expressed in baculovirus expression system at 0.1 uM using serine/threonine-4 peptide as substrate incubated for 60 mins by Z'-LYTE assay relative to control.
Assay [23] addresses Tyrosine-protein kinase BTK (Homo sapiens) (UniProt Q06187). The assay can be described thus: Inhibition of recombinant full length human His-tagged BTK expressed in baculovirus expression system at 0.1 uM using tyrosine-1 peptide as substrate incubated for 60 mins by Z'-LYTE assay relative to control.

What is called inhibition is the relative decrease from the control value, in per cent.

Chain of Tyrosine-protein kinase Tec (Homo sapiens) (P42680 whole entry): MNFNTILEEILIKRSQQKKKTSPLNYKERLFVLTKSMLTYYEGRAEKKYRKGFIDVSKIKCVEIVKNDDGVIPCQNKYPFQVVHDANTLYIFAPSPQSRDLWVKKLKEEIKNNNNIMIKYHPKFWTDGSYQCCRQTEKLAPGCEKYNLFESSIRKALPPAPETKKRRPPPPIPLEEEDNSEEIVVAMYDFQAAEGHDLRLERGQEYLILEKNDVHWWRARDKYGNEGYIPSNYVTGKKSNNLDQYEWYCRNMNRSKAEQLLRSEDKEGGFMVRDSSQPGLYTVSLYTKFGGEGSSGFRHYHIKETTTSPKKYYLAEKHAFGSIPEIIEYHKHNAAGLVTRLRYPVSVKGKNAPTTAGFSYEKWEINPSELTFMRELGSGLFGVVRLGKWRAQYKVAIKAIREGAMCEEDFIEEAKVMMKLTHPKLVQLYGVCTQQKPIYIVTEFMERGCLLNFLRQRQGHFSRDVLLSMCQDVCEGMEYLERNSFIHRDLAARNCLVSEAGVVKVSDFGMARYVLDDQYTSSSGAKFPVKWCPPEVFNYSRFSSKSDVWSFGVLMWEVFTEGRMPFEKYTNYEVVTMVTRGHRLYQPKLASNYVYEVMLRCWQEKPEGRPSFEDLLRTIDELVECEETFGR
Chain of Dual specificity mitogen-activated protein kinase kinase 6 (Homo sapiens) (P52564 whole entry, canonical isoform): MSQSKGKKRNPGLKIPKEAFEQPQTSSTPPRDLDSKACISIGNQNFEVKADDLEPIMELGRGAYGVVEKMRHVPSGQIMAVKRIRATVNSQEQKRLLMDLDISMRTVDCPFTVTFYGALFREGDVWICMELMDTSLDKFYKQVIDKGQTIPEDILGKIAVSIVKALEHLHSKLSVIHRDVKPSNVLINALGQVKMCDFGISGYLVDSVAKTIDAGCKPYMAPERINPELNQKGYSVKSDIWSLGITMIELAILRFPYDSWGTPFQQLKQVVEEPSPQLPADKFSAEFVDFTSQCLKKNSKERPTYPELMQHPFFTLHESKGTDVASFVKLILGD
Chain of Tyrosine-protein kinase Yes (Homo sapiens) (P07947 2-543 limits assumed): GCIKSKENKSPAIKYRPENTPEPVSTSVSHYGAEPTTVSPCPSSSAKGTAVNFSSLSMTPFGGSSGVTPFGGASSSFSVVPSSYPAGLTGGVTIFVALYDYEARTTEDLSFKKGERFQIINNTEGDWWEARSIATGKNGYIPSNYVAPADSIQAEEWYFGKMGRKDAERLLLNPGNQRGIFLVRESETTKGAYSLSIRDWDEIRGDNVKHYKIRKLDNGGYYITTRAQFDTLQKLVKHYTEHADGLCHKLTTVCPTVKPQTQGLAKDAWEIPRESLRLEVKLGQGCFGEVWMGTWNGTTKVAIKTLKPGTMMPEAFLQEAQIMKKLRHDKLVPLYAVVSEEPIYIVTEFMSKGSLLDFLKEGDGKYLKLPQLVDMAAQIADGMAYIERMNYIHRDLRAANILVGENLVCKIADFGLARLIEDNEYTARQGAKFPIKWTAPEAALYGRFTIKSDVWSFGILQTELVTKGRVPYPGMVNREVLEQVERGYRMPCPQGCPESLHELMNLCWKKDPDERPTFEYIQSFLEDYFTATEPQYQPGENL

`CCN1CC2(C1)CN(c1ccc(Nc3ncc(F)c(-c4cnn5c4[C@H](C)CCCC5)n3)nc1)C2`: the inhibition in assay [1] amounted to 5%; in assay [2], 66.5%; in assay [3], 10%; in assay [4], 10.5%; in [5], 57.5%; in assay [6] it was 1.5%. Besides, the inhibition came out at 2.5% in assay [7]; 16% in [8]; 3.5% in assay [9]; 8.5% in assay [10]; 7.5% in assay [11]; 0% in [12]. In addition, the inhibition was 64% in assay [13]; 58.5% in assay [14]; 6% in assay [15]; 2% in assay [16]; 27.5% in assay [17]; 6% in [18]. The inhibition in assay [19] was determined as 7%; in assay [20] it was 3.5%; in [21], 25.5%; in [22], 61.5%; in assay [23], 4%.
With `CCN1CCN(Cc2ccc(Nc3ncc(F)c(-c4cc(F)c5nc(C)n(C(C)C)c5c4)n3)nc2)CC1` [ABEMACICLIB], the inhibition in assay [1] turned out to be 0.8%; in assay [2], 59.1%; in assay [3], 2.5%; in assay [4], 26.7%; in assay [5], 59.5%; in assay [6] it was 7.5%. The inhibition in assay [7] was 4.5%; in assay [8] it was 10.9%; in assay [9], 1.5%; in [10], 9%; in [11], 8%; in [12] it was 14.3%. In addition, the inhibition was 62% in assay [13]; 19.5% in [14]; 14% in assay [15]; -6.3% in assay [16]; 79.5% in assay [17]; 8% in assay [18]. Also, the inhibition in assay [19] is 4.3%; in assay [20], 12.5%; in [21], 10.5%; in assay [22], 25.5%; in assay [23], 3%.

The record behind these values is ChEMBL document CHEMBL4385643, “Design of a brain-penetrant CDK4/6 inhibitor for glioblastoma” (Bioorg Med Chem Lett, 2019).
